Measurements from US20090264421A1 (priority 2007, published 2009).
Read-outs that look alike come from different tables or passages of the source.

Assays:
A549 cells [1] = assay type: cell-based, human
Description: FIG. 7. […] A549 cells were exposed to the indicated concentration of chaetocin for 24 hours, with addition of glutathione or diluent 30 minutes prior to chaetocin addition. Glutathione levels were assessed by spectrophotometric assay as described below. […] Cells were treated with 10 μM chaetocin for 20 minutes prior to assay, and calculated intracellular chaetocin levels were measured by HPLC with adjusted for differences in average cell volume (calculated from measured cell radii ascertained via light microscopy). Shaded area represents 1 standard deviation confidence interval, with central bar reflecting the mean relative intracellular chaetocin level. […] Cells from 4 myeloma patients were exposed to 200 μM hydrogen peroxide for 24 hours prior to assay, with trypan blue exclusion used to assess surviving cells.
Assessment of cellular oxidative stress: Cellular oxidative stress was assessed utilizing 5,6-chloromethyl-2′,7′-dichlorodihydrofluorescein diacetate or hydroethidium (Molecular Probes/Invitrogen, Carlsbad, Calif.) as cell permeable fluorescent probes and FACS analyses.

[2] = test system: freshly collected sorted patient CD138+ myeloma cells; settings: 24 hours
Description: FIG. 3. […] Survival indicated in A-E was assessed using a trypan blue exclusion assay, counting viable cells using a hemocytometer after 24 hour exposure to the indicated drugs and drug concentrations.
Patient bone marrow leukocytes were divided into myeloma (CD138+) and non-myeloma/normal leukocyte (CD138−) fractions employing sorting using magnetic bead technology in kit form (MACS CD138 microbeads, Miltenyi Biotech, Auburn, Calif.). Sorted cells were plated in a 96-well tissue culture plate at a concentration of 5×10^5 cells and dosed with indicated drug concentrations for 24 hours. Survival was assessed using a trypan blue exclusion assay.

A549 cells [3] = settings: for effect of NAC on reductions in colony formation caused by HDAC inhibitors: data not shown
Description: FIG. 5. […] B. Assessment of intracellular (A549 cells) and extracellular (media) chaetocin concentrations as functions of time in response to addition of 10 μM chaetocin to tissue culture media at time 0. C. […] For B and C, chaetocin concentrations were determined as described in the text using HPLC. […] Cells were exposed to all agents for 24 hours, with colonies assessed 6-7 days subsequently as described below.
FIG. 6. […] C. and D. The effects of glutathione pretreatment on intracellular (C) and extracellular (media, D) chaetocin concentration in response to treatment of A549 cells with 10 μM chaetocin for 5 min. Intracellular and extracellular chaetocin concentrations were assessed using HPLC as described in the text, with 100 μM glutathione added 5 minutes before chaetocin addition. E. “Double reciprocal” plot indicating the effects of 5 minute pretreatment with 100 […] glutathione or diluent on intracellular chaetocin concentrations resulting from exposure of A549 cells to varying concentration of chaetocin for 5 minutes. Intracellular chaetocin concentrations were assessed using HPLC as described in the text. Results shown are representative of three independent experiments.
Colony formatting assays: Briefly, 650 suspended A549 cells obtained from trypsinization of stock flasks of subconfluent cell cultures were deposited into each of triplicate sets of 35 mm tissue culture plates and allowed to adhere for 16 hours. Cells were then treated for the indicated durations (24 hours unless otherwise indicated) with diluent and/or drugs as indicated in the text and Figures. After drug removal and washing, cells were allowed to proliferate in drug-free medium for 7 to 10 days, and thereafter washed twice with serum-free phosphate buffered saline (PBS), stained with Coomassie blue, and then manually counted.

thioredoxin reductase = target: T1, thioredoxin reductase (Rattus norvegicus, UniProt O89049); test: Thioredoxin reductase activity assay (gel-based oxidation state of thioredoxin method); assay type: biochemical; settings: gel-based, AMS modification
T1 construct: rat liver thioredoxin reductase; purchased Sigma (St. Louis, Mo.); host or cells: rat liver
T1 sequence (O89049 1-499): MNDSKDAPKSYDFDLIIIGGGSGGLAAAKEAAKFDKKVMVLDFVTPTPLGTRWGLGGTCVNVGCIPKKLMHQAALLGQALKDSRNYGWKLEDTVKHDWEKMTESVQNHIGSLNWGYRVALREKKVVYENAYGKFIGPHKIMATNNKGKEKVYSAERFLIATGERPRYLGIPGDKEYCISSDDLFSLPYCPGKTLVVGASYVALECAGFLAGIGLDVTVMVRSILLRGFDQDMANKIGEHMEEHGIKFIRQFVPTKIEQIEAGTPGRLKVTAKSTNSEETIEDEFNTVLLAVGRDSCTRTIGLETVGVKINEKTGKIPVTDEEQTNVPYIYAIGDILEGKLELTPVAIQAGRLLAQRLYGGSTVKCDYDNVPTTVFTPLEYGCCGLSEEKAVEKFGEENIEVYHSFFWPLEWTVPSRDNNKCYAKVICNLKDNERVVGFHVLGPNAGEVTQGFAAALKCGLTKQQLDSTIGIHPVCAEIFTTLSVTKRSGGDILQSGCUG
Description: HeLa cells were obtained from ATCC.
Thioredoxin Reductase Activity Assay (gel-based oxidation state of thioredoxin method): Reduction of thioredoxin by thioredoxin reductase was measured by the decrease in electrophoretic mobility caused by covalent modification of thioredoxin (by AMS) when the disulfide is reduced. […] At the indicated time, a 5 μL sample was removed and immediately added to 5 μL of 30 mM AMS in TE buffer (pH 7.5). The AMS was allowed to react (15 minutes at 22° C.) with reduced thioredoxin sulfhydryl groups, then the samples were mixed with non-reducing sample buffer and were electrophoresed on 18% Tris-HCl SDS-PAGE gels. The gels were stained with Coomassie blue and bands were imaged and quantitated using a Syngene InGenius gel documentation system (Frederick, Md.).

TrxR1 = target: T2, TrxR1 (Rattus norvegicus, UniProt O89049)
T2 sequence (O89049 1-499): T1 sequence (O89049 1-499)
Text: Reagents: Chaetocin, β-Nicotinamide adenine dinucleotide 2′-phosphate reduced tetrasodium salt hydrate (NADPH), rat liver thioredoxin reductase, 5,5′-dithiobis(2-nitrobenzoic acid) (DTNB), oxidized glutathione (GSSG), bovine insulin, gliotoxin, thioredoxin reductase assay kit, anti-actin antibody and Celytic lysis reagent were purchased from Sigma (St. Louis, Mo.); yeast glutathione reductase and Complete Protease Inhibitor Tablets from Roche (Indianapolis, Ind.); BCA protein from Pierce (Rockford, Ill.); oxidized E. coli thioredoxin and dithiothreitol (DTT) from Promega (Madison, Wis.); verruculogen from Calbiochem (San Diego, Calif.); 4-acetamido-4′-maleimidylstilbene-2,2′-disulfonic acid (AMS) and Lipofectamine-Plus from Invitrogen (Carlsbad, Calif.); chaetomin from Alexis Biochemicals (San Diego, Calif.); and anti-thioredoxin antibody from Cell Signaling (Beverly, Mass.). HeLa cells were obtained from ATCC.
Steady-state kinetics: The 100 μL reaction consisted of 100 mM potassium phosphate (pH 7.0), 10 mM EDTA, 0.0004 U/μL thioredoxin reductase and chaetocin or other compounds as indicated. The assay was carried out in a 96-well quartz plate and the oxidation of NADPH was measured as a change in absorption at 340 nm. The initial velocities of the reaction were calculated from the decrease in the absorbance between 0 and 5 min (slope), and on a pathlength of 0.3 cm and NADPH ε=6.22 mmol^−1*cm^−1*L. The velocity versus concentration data were then analyzed using SigmaPlot's Enzyme Kinetics 1.3 program (Systat Software, San Jose, Calif.).

HeLa cells = test: Transient thioredoxin overexpression in HeLa cells, trypan blue viability; assay type: cell-based, human; settings: 100 nM, 24 hours
Description: A. Transient overexpression of thioredoxin attenuates chaetocin—but not doxorubicin-induced cytotoxicity in HeLa cells. Transfected cells were treated for 24 hours, cell viability assessed using a trypan blue […] assay. Inset: immunoblotting showing increased level of thioredoxin in transiently transfected HeLa cells compared to empty-vector transfected cells. B. Model indicating how chaetocin competes with thioredoxin as a substrate for thioredoxin reductase, thereby serving to attenuate reduction of the thioredoxin reductase downstream substrate and effector thioredoxin. Figure numbers corresponding to experimental data supporting indicated effects are shown.
Cell culture, transient transfections, and immunoblotting: HeLa cells were cultured in RPMI 1640 containing 5% FBS and 2 mM L-glutamine. Cells were passaged twice weekly and maintained in 37° C. in an atmosphere containing 95% air-5% CO2 (vol/vol). For transfections, 10^5 cells per well were plated in 12-well plates and were transfected with 1 μg pcDNA or pcDNA-Trx using standard Lipofectamine-Plus procedures. Transfection efficiency based on cells transfected with GFP was 80%. […] The cells were then trypsinized and manually counted in trypan blue to exclude dead cells. […] Protein was analyzed by BCA assay and lysates were electrophoresed on 15% SDS-PAGE gels and transferred to nitrocellulose. […]

A549 cells [4] = assay type: cell-based, human; settings: glutathione added 5 minutes before 10 μM chaetocin
Text: Measurement of intra- and extracellular chaetocin levels: Tumor cells treated with indicated chaetocin concentrations were washed twice with ice cold PBS, immediately solubilized in 0.5 M perchloric acid, and evaluated “real time” via HPLC using Beckman System Gold Nouveau Software with a dual pump 125 gradient pump system, 507e autosampler, 168 diode array detector, and Beckman Ultrasphere ODS column (4.6 mm×[…]×7 μm) using the following elution profile: 100% water to 100% methanol linear gradient over 40 minutes, followed by a 10 minute period of elution with 100% methanol. Quantitation was accomplished using a standard curve of peak areas derived from analogous HPLC data using varying concentrations of chaetocin.

[5] = substrate of TrxR1, NADPH oxidation

OO [H2O2, hydrogen peroxide]
cellular oxidative stress (A549 cells [1]; 24 hours, FACS probe): increased intracellular oxidative species
sensitivity of patient myeloma cells versus matched normal leukocytes ([2]; 200 μM hydrogen peroxide, 4 patients): more sensitive to peroxide-induced cytotoxicity

O=C(/C=C/c1ccc(CN(CCO)CCc2c[nH]c3ccccc23)cc1)NO [LAQ-824]
effect of NAC on reductions in colony formation caused by HDAC inhibitors (A549 cells [3]; A549 cells): unaffected by NAC

CC(=O)N[C@@H](CS)C(=O)O [NAC, N-acetyl cysteine]
effect of pretreatment on chaetocin-induced oxidative stress (A549 cells [1]; 10 mM NAC): attenuated chaetocin-induced oxidative stress
effect of co-treatment on chaetocin-induced reductions in colony formation (A549 cells [3]; A549 cells, co-treatment with chaetocin): attenuated chaetocin-induced cytotoxicity

CS[C@@]1(CO)C(=O)N2[C@H]3Nc4ccccc4[C@@]3([C@]34C[C@]5(SC)C(=O)N(C)[C@@](CO)(SC)C(=O)N5[C@H]3Nc3ccccc34)C[C@]2(SC)C(=O)N1C [S-methyl chaetocin]
inhibition of reduction of thioredoxin by thioredoxin reductase (thioredoxin reductase): inability
cytotoxicity (colony formation) (A549 cells [3]; 24 hour exposure, modified chaetocin disulfide bond): complete abrogation of its cytotoxicity

CN1C(=O)[C@]2(Cc3cn([C@]45C[C@@]67SS[C@@](CO)(C(=O)N6[C@H]4Nc4ccccc45)N(C)C7=O)c4ccccc34)SS[C@@]1(CO)C(=O)N2C [chetomin, chaetomin]
Km (TrxR1; [5]): 16.1 ± 5.4 µM
inhibition of reduction of thioredoxin by thioredoxin reductase (thioredoxin reductase): also inhibited the activity of thioredoxin reductase, albeit somewhat less effectively than chaetocin

COc1cccc2c1C(=O)c1c(O)c3c(c(O)c1C2=O)C[C@@](O)(C(=O)CO)C[C@@H]3O[C@H]1C[C@H](N)[C@H](O)[C@H](C)O1 [doxorubicin]
effect of transient Trx overexpression on drug-induced cell death (HeLa cells): did not appreciably rescue cells from doxorubicin-induced cell death
activity against sorted patient CD138+ myeloma cells ([2]; ex vivo, trypan blue exclusion): largely resistant

CN1C(=O)[C@]23CC4=CC=C[C@H](O)[C@H]4N2C(=O)[C@@]1(CO)SS3 [gliotoxin]
Km (TrxR1): 16 ± 5 µM
inhibition of reduction of thioredoxin by thioredoxin reductase (thioredoxin reductase): also inhibited the activity of thioredoxin reductase, albeit somewhat less effectively than chaetocin

N[C@@H](CCC(=O)N[C@@H](CS)C(=O)NCC(=O)O)C(=O)O [glutathione, reference compound]
effect of pretreatment on cellular accumulation of chaetocin (A549 cells [4]): attenuated the cellular accumulation of chaetocin
effect of co-treatment on chaetocin-induced reductions in colony formation (A549 cells [3]): attenuated chaetocin-induced cytotoxicity

CC(/C=C/C(=O)NO)=C\[C@@H](C)C(=O)c1ccc(N(C)C)cc1 [tricostatin A, trichostatin A]
effect of NAC on reductions in colony formation caused by HDAC inhibitors (A549 cells [3]; A549 cells): unaffected by NAC

CCCC(CCC)C(=O)O [valproic acid]
effect of NAC on reductions in colony formation caused by HDAC inhibitors (A549 cells [3]; A549 cells): unaffected by NAC

COc1ccc2c3c4n(c2c1)[C@H](C=C(C)C)OOC(C)(C)C[C@@H]4N1C(=O)[C@@H]2CCCN2C(=O)[C@]1(O)[C@H]3O [verruculogen, reference compound]
inhibition of reduction of thioredoxin by thioredoxin reductase (thioredoxin reductase): inability

Trx: TrxR1 native substrate thioredoxin (oxidized E. coli thioredoxin from Promega)
Km (TrxR1; [5]): 105 ± 26 µM
